From patent US10508281B2, “Disruption of ROCK1 gene leads to plants with improved traits” (priority 2014, dated 2019)
Residues, ends and D or L forms follow the SMILES beside them. *: point of attachment. Cbz = O=C(OCc1ccccc1)*

Assays:
ROCK1 = target: T1, ROCK1 (Arabidopsis thaliana, UniProt Q8LES0); test: Nucleotide-sugar transport assay: uptake of radiolabeled nucleotide sugars into yeast microsomes expressing FLAG-ROCK1; assay type: biochemical; settings: ER/Golgi microsomal vesicles from S. cerevisiae expressing FLAG-ROCK1 vs empty vector control
T1 construct: FLAG (N); made in house; host or cells: Saccharomyces cerevisiae BY4741 (microsomal vesicles)
T1 sequence (Q8LES0 1-325): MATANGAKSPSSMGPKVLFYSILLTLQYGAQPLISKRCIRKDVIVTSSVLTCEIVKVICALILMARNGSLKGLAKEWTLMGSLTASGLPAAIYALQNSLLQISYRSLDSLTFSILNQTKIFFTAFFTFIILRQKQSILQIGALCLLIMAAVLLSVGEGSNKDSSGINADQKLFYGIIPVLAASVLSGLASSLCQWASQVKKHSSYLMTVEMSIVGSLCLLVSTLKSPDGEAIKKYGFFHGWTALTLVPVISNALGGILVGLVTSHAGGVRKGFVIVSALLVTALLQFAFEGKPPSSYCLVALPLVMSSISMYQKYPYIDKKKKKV
Protocol: (B) Measurement of ROCK1-mediated uptake of radiolabeled nucleotide sugars into yeast microsomes expressing FLAG-ROCK1 or empty vector. Means±SEM (n=3; *, P<0.05, t test).
Nucleotide-sugar transport into Saccharomyces cerevisiae (BY4741) transformed with the construct pYEScupFLAGK-ROCK1 or the empty vector control was measured as described by Ashikov et al. (2005): “cultured cells were harvested by centrifugation (5 min at 1,500×g) and washed twice with ice-cold 10 mm NaN3. The weight of wet cells was measured, and cells were resuspended in zymolyase buffer (3 ml/g of cells; 50 mm potassium phosphate, pH 7.5; 1.4 m sorbitol; 10 mm NaN3 and 0.3% β-mercaptoethanol) containing 0.6 mg/ml of zymolyase-100T. The suspension was incubated for 20 min at 30° C. Spheroplasts were collected by centrifugation (5 min at 1,000×g) and resuspended in lysis buffer (4 ml/g of cells; 10 mm Hepes-Tris, pH 7.4; 0.8 m sorbitol; 1 mm EDTA) containing complete EDTA-free protease inhibitor mixture (Roche Applied Science). After homogenization with 10 strokes in a Dounce homogenizer, the lysate was centrifuged (5 min, 1,500×g) to remove unlysed cells and debris. Endoplasmic reticulum- and Golgi-rich fractions were then obtained by centrifugation at 10,000×g for 10 min (endoplasmic reticulum) and 100,000×g for 1 h (Golgi). The 100,000×g pellet was carefully resuspended in lysis buffer (0.8 ml/g of cells), and aliquots of 100 μl were snap-frozen and kept at −80° C. Protein concentrations were determined using the BCA™ kit (Pierce). For transport assay reactions, equal volumes (50 μl of each) of 2 mm radioactive nucleotide sugar (2,000-4,000 dpm/pmol) in assay buffer (10 mm Tris-HCl, pH 7.0; 0.8 m sorbitol; 2 mm MgCl2) and vesicle preparation (equivalent to 75-100 μg of protein) were incubated for 30 s at 30° C. Reactions were stopped by dilution with 1 ml of assay buffer containing 1 μm respective cold nucleotide sugar. The separation of vesicles and nucleotide sugars was achieved by filtration trough nitrocellulose filter (MF™ membrane filters Millipore, Bedford, Mass.). Filters were washed three times with 2 ml of ice-cold assay buffer containing the corresponding cold nucleotide sugar at a concentration of 1 μm, and radioactivity associated with the vesicular fraction was measured by liquid scintillation in a LS 5000CE counter (Beckman Coulter). Golgi vesicles from yeast cells transformed with an empty vector were used to measure endogenous transport.”
To directly test the transport specificity of ROCK1, a FLAG-tagged ROCK1 protein was expressed in Saccharomyces cerevisiae, which has, with the exception of GDP-Man, a low background for most nucleotide sugar transport activities and is commonly used as a heterologous test system for NSTs. […]

ipt3,5,7 = test: Restoration of growth of ipt3,5,7 mutant plants by CKX inhibitor application; assay type: in vivo, Arabidopsis thaliana; settings: shoots sprayed with 10 μM INCYDE every 3 days; compared with suppression by rock1-1
Protocol: If not otherwise denoted, Arabidopsis thaliana Columbia-0 was used as the wild type. The T-DNA insertion lines rock1-2 (SALK_001259) and rock1-3 (901C01) were used. The following lines were described previously: 35S:CKX1-11, 35S:CKX2-9, 35S:CKX3-9, 35S:CKX7-GFP-26, ahk2-5, ahk3-7, cre1-2, atipt1, atipt3-2, atipt5-2, atipt7-1, cgl1 C6 (cgl1-2) and ARR5:GUS. Plants were grown in vitro on half-strength Murashige and Skoog (MS) medium containing 10 g/L sucrose, 0.5 g/L MES and 8 g/L phytagel. For analysis of root growth, 12 g/L phytagel and cytokinin or DMSO as solvent control were added to the medium. Plants were grown under long day conditions (16 h light/8 h dark; 21/18° C.) in vitro or in the green house. Shoots of soil grown plants were sprayed with 10 μM INCYDE and 0.01% Silwet L-77 every 3 days starting 3 days after germination. The binary vector constructs were transformed into Arabidopsis plants by Agrobacterium tumefaciens (strain GV3101:pMP90) mediated floral dip method.
To gain information about the specificity of rock1 in suppressing CKX overexpression phenotypes, rock1-1 was introgressed into 35S:CKX2, 35S:CKX3 and 35S:CKX7 plants.

myc-CKX1 = myc-CKX1 level in seedlings after proteasome inhibitor treatment (immunoblotting and densitometry); assay type: in vivo, Arabidopsis thaliana; settings: seedlings treated with 100 μM MG132
Protocol: FIG. 4. ROCK1 regulates ERQC and CKX protein stability. (A) N-glycosylation status of myc-CKX1 protein in wild-type and rock1 seedlings. Protein extracts were treated with PNGase F or EndoH and the size of myc-CKX1 was compared to mock-treated control by SDS-PAGE and immunoblot with anti-myc antibody. (B) The loss of GnT-I activity in cgl1 mutants has no influence on the shoot phenotype of 35S:CKX1 plants (21 dag). (C) The level of myc-CKX1 is decreased in rock1 compared to wild type. Total protein extracts were analyzed by immunoblot with anti-myc antibody. Coomassie blue staining of Rubisco large subunit (RbcL) was used as loading control. Relative densitometric analysis of the myc-CKX1 signal is shown. […] Protein extracts were prepared from 7-d-old seedlings treated with mock or 100 μM CHX for indicated times and analyzed by immunoblotting. […] Seedlings were treated with 100 μM MG132 and myc-CKX1 analyzed by immunoblotting and densitometry. […] (F) Quantitative real-time PCR analysis of UPR genes in shoots of soil-grown seedlings 9 dag measured by. […]
Proteins were extracted and the concentration determined as described for the CKX activity assay. […] Intensities were normalized to the loading control and calculated relative to wild type samples. […]
To test CKX1 turnover, we analyzed myc-CKX1 levels in the presence of the translation inhibitor cycloheximide (CHX). […]

Structure (SMILES) | relative transport in ROCK1 microsomes versus empty vector control (in words) (ROCK1) | uptake in vesicles expressing ROCK1, increased in comparison to the control (ROCK1) [fold] | also measured
Nc1nc2c(ncn2[C@@H]2O[C@H](COP(=O)(O)OP(=O)(O)O[C@H]3O[C@H](CO)[C@@H](O)[C@H](O)[C@@H]3O)[C@@H](O)[C@H]2O)c(=O)[nH]1 [GDP-Man] | lowered |  | 
CC1OC(OP(=O)(O)OP(=O)(O)OCC2OC(n3cnc4c(=O)[nH]c(N)nc43)C(O)C2O)C(O)C(O)C1O (stereo not shown) [GDP-Fuc] | lowered |  | 
CC(=O)N[C@H]1[C@@H](OP(=O)(O)OP(=O)(O)OC[C@H]2O[C@@H](n3ccc(=O)[nH]c3=O)[C@H](O)[C@@H]2O)O[C@H](CO)[C@H](O)[C@@H]1O [UDP-GalNAc, UDP-N-acetylgalactosamine] |  | 7 | 
COc1cccc(Nc2nc(Cl)nc3nc[nH]c23)c1 [chemical inhibitor of CKX activity] |  |  | restoration of ipt3,5,7 growth (ipt3,5,7): comparable restoration of ipt3,5,7 growth
CC(C)C[C@@H](C=O)NC(=O)[C@H](CC(C)C)NC(=O)[C@H](CC(C)C)NC(=O)OCc1ccccc1 [MG132] (Cbz-Leu-Leu-Leu-aldehyde) |  |  | effect on myc-CKX1 levels in rock1 background (myc-CKX1; rock1 background): strongly stabilized myc-CKX1 levels; effect on level of myc-CKX1 in wild type (myc-CKX1; wild type background): increased the level of myc-CKX1
CC(=O)N[C@H]1[C@@H](OP(=O)(O)OP(=O)(O)OC[C@H]2O[C@@H](n3ccc(=O)[nH]c3=O)[C@H](O)[C@@H]2O)O[C@H](CO)[C@@H](O)[C@@H]1O [UDP-GlcNAc, UDP-N-acetylglucosamine] |  | 3 | 
